Assay results published in patent US11034725B2, “Compositions and methods for treating cardiovascular disease” (Genentech, Inc., priority 2016, dated 2021).
Read-outs that look alike come from different tables or passages of the source.

Assays:
PCSK9 = PCSK9 (Homo sapiens, UniProt Q8NBP7); test: PCSK9/EGF(A) TR-FRET binding assay; conditions: for IC50: TR-FRET, read-out: PCSK9/EGF(A) IC50
PCSK9Δhelix [1] = molecular target: T1, PCSK9Δhelix (Homo sapiens, UniProt Q8NBP7); test: PCSK9Δhelix/Ab20 TR-FRET binding assay
T1 construct: Human PCSK9 construct M1-Q692 with an engineered TEV site (residue deletion Y166, R167); made in house; host or cells: CHO

His-EGF(A)-Fc = His-EGF(A)-Fc TR-FRET counterscreen
PCSK9Δhelix [2] = molecular target: T1, PCSK9Δhelix; test: Surface plasmon resonance biosensor-based affinity analysis (Example 4); format: binding; conditions: Table 7, Target PCSK9Δhelix, SPR at 20° C.; read-out: Kd
PCSK9Δhelix [3] = molecular target: T1, PCSK9Δhelix; test: SPR affinity measurements of peptide binding (Example 8); conditions: Table 10, binding to PCSK9Δhelix
Experimental: A Biacore™ T100 or Biacore™ 8K was adjusted to 20° C. The system was primed into assay buffer which consisted of 25 mM HEPES, pH 7.5, 0.15 M NaCl, 0.005% (v/v) Tween® 20, 0.2 mM tris(2-carboxyethyl)phosphine and optionally contained 0.1% (w/v) carboxymethylated dextran (average MW 10 kDa) and 0.2% (w/v) PEG (average MW 3450 Da) in order to reduce potential non-specific binding. Peptides were assayed by capturing fresh PCSK9 or PCSK9Δhelix after each binding regeneration cycle by exploiting a histidine tag and an NTA-sensor chip. The surface was charged with (His)8-tagged PCSK9 (approximately 800 RU captured). […] Compound 19 and Compound 20 were assayed in six serial two-fold dilutions from 100 nM to 3.1 nM. All peptides were analyzed in duplicate by serial injection (50 μL/min for 1 min) of peptide dilution from low to high concentration. The surface was then stripped of target by injecting 0.5 M EDTA, pH 8.0. This sequence was repeated for each peptide binding cycle and blank control cycles.
All SPR data was recorded in duplicate for five, or more serial dilutions, except for the two fusion peptides, which produced extremely low fitting error. Multicycle data (i.e. separate curves for each concentration) and single cycle data (i.e. single curve with serial injection of each concentration) were double referenced and fitted to an interaction model using BIAevaluation software. Peptide binding to PCSK9 produced deviations from a simple 1:1 binding interaction model that required application of a two-state model for determination of Kd while interactions with PCSK9Δhelix conformed well to simple 1:1 binding. Kinetic curvature was poorly defined for rapidly dissociating peptides and in these cases Kd was estimated from a steady-state dose response plot. Kd values were reported with associated standard error, a measure of confidence in that parameter value.

[4] = molecular target: T2, PCSK9-R167A:R215A:R218A (PCSK9-AAA) (Homo sapiens, UniProt Q8NBP7, R167A/R215A/R218A); test: FXIa cleavage assay of the P′ helix of PCSK9-AAA; format: biochemical; conditions: immunoblot with anti-N-terminal peptide antibody
T2 construct: made in house; host or cells: CHO (transient)
Experimental: The PCSK9-AAA mutant (2.6 μM) was incubated with 50 nM FXIa (Haematologic Technologies) in Tris buffer (50 mM Tris, 150 mM NaCl, 4 mM CaCl2, pH 8.0) at room temperature for the indicated time periods. […] After SDS-PAGE of the samples, proteins were transferred to a nitrocellulose membrane using iBlot (Invitrogen). Proteins were then probed with a polyclonal rabbit antibody (1:3000) raised against the PCSK9 N-terminal peptide (^153[…]^168 (SEQ ID NO: 5)), followed with HRP-conjugated donkey anti-rabbit antibody (1:5000, GE Healthcare) using iBind (Invitrogen). PCSK9 signals were detected by ECL (GE Healthcare) and visualized by autoradiography.
Proteins were then probed with a polyclonal rabbit antibody (1:3000) raised against the PCSK9 N-terminal peptide (^153[…]^168 (SEQ ID NO: 5)), followed with HRP-conjugated donkey anti-rabbit antibody (1:5000, GE Healthcare) using iBind (Invitrogen). PCSK9 signals were detected by ECL (GE Healthcare) and visualized by autoradiography.

[5] = TR-FRET, Table 8E, additional compounds, read-out: PCSK9Δhelix/Ab20 IC50
[6] = TR-FRET counterscreen, Table 8E, additional compounds
[7] = TR-FRET, Example 7, read-out: PCSK9Δhelix/Ab20 IC50

Row | Substance | IC50 (PCSK9; Example 7) | IC50 (PCSK9Δhelix [1]; [7]) | IC50 (His-EGF(A)-Fc; counterscreen, Example 7) | further results
1 | Ac-GLMPWNLVRIGLLR-NH2 [Compound 124] | – | – | – | IC50 (PCSK9; Table 8E, additional compounds): ≥ 50 µM; IC50 (PCSK9Δhelix [1]; [5]): 3.9 µM; IC50 (His-EGF(A)-Fc; [6]): ≥ 50 µM
2 | Ac-LMPWNLVRIGLLR-NH2 [Compound 50] | > 50 µM | 2.66 µM | > 50 µM | Kd (PCSK9Δhelix [2]): 1.6 µM; IC50 (PCSK9Δhelix [1]; Table 10, average ±S.D. of three experiments, read-out: Ab20 IC50): 3.6 ± 0.2 µM; Kd (PCSK9Δhelix [3]): 0.47 µM
3 | Ac-PWNLVRIGL-NH2 [Compound 119] | > 50 µM | ≥ 49.5 µM | > 50 µM | –
4 | Ac-SGDLMPWNLVRIGLLR-NH2 [Compound 122] | – | – | – | IC50 (PCSK9; Table 8E, additional compounds): ≥ 50 µM; IC50 (PCSK9Δhelix [1]; [5]): 5.6 µM; IC50 (His-EGF(A)-Fc; [6]): ≥ 50 µM
5 | Ac-TVATSAEEYLLWV-NH2 [Pep2-8-ctrl, reference compound] | – | – | – | effect on FXIa-mediated cleavage of the P′ helix of PCSK9-AAA [4]: did not prevent cleavage; effect on FXIa-mediated cleavage of the P′ helix of PCSK9-AAA ([4]; listed as control peptide): did not inhibit cleavage
6 | Ac-TVFTSWEEYLDWVGSGGKLWNLGRV-NH2 [Compound 9] | 0.39 µM | 0.065 µM | > 50 µM | –
7 | Ac-TVFTSWEEYLDWVGSGKLWN-NH2 [Compound 7] | 0.5 µM | 18.6 µM | > 50 µM | –
8 | Ac-TVFTSWEEYLDWVGSGKLWNLGRV-NH2 [Compound 1] | – | 0.021 µM | > 50 µM | inhibition in the PCSK9/EGF(A) binding assay (PCSK9): comparable activity to Pep2-8; inhibition in the PCSK9Δhelix/Ab20 binding assay (PCSK9Δhelix [1]): superior activity
9 | Ac-WNLVRIGL-NH2 [Compound 120] | > 50 µM | ≥ 49.5 µM | > 50 µM | –
10 | EGFA-Fc: Fc fusion protein of the EGFA domain of LDLR | – | – | – | effect on FXIa-mediated cleavage of the P′ helix of PCSK9-AAA [4]: largely prevented cleavage
11 | H-SGDLMPWNLVRIGLLR-OH [Compound 28] | – | – | – | Kd (PCSK9Δhelix [2]): 0.856 µM
